Results published in patent publication US20240197652A1, “KETAMINE IN THE TREATMENT OF […]” (Awakn LS Europe Holdings Limited, priority 2021, published 2024).

Tests used:
Assay type in all cases: in vivo, human
[1] = Plasma ketamine, HNK and norketamine levels, binge eating disorder subjects (Example 8); settings: analyte = label; for peak plasma concentration: 100 mg racemic ketamine sublingual; for time of peak plasma concentration: post-administration of 100 mg racemic ketamine sublingual
Protocol: A study was completed on the use of ketamine to treat binge eating disorder. Subjects were assessed for binge eating disorder using the Binge Eating Scale (BES), and included if they received a BES score greater than 15. Three subjects in total were included (BE1-BE3, and interchangeably on FIGS. 5 and 6 as BED1-BED3, these being the same subjects). All three were administered sublingual lozenges comprising 100 mg of racemic ketamine.
Blood samples were collected from all three subjects. Blood samples were analysed to determine ketamine and ketamine metabolite levels, as well as the hormones leptin and ghrelin. Self-report measures were conducted.
The treatment protocol commenced in substantially the same way as disclosed in the ketamine in subjects with gambling disorder study completed in EXAMPLE 7, with the exceptions outlined as follows: No behavioural tasks were completed. Blood samples collected every 10 minutes from the time of administration to 90 minutes post-administration were additionally analysed for leptin and ghrelin. Self-report measures included the Binge Eating Scale, the Adult Attachment Interview (AAI), a 20 question interview about the subject's recollections of their childhood (Sykes and Turner, 2015); the Childhood Trauma Questionnaire; the Morningness-Eveningness Questionnaire (MEQ), a 19-item questionnaire designed to assess when a respondent prefers to wake up or start sleep (American Thoracic Society, 2022); the DSM-5 Binge Eating Disorder diagnostic criteria; and the SPSRQ.

[2] = Plasma ketamine, HNK and norketamine levels, gambling disorder subjects (Example 7); settings: analyte = label; for peak plasma concentration: 100 mg racemic ketamine sublingual; for time of peak plasma concentration: post-administration of 100 mg racemic ketamine sublingual
Protocol: A study was completed on the use of ketamine to treat gambling disorder. Subjects were assessed for gambling disorder using the PGSI. Subjects were included if they received a PGSI score greater than 3. Five subjects in total were included (G1-G5). All five subjects were administered ketamine. Blood samples were collected from all five subjects. Blood samples were analysed to determine ketamine and ketamine metabolite levels, and each subject was assessed post-administration to determine the effectiveness of the treatment.
On Day 3, each subject returned on-site and was administered ketamine. 100 mg of racemic ketamine was administered in as sublingual lozenges.
(§1) Blood samples were collected every 10 minutes, from 0 minutes (the time of administration) to 90 minutes post-administration. Blood samples at each time point were analysed to determine plasma levels of (2S,6S;2R,6R)-Hydroxynorketamine (HNK).

[3] = Plasma ketamine, HNK and norketamine levels, CSBD subjects (Example 10); settings: analyte = label; for peak plasma concentration: 100 mg racemic ketamine sublingual; for time of peak plasma concentration: post-administration of 100 mg racemic ketamine sublingual
Protocol: A study was completed on the use of ketamine to treat CSBD. Subjects were assessed for CSBD using the Problematic Pornography Use Scale (PPUS) and were included if they received an PPUS score greater than 3. Three subjects in total were included (CSB1-CSB3). All three were administered sublingual lozenges comprising 100 mg of racemic ketamine.
Blood samples were collected from all three subjects. Blood samples were analysed to determine ketamine and ketamine metabolite levels. Assessments were conducted as below.
The treatment protocol commenced in the same way as disclosed in the ketamine in subjects with gambling disorder study completed in EXAMPLE 7, with the exceptions outlined as follows: No behavioural tasks were completed. Self-report measures completed during EXAMPLE 10 included the Emotional Intimacy Measure, the Childhood Trauma Questionnaire, the Generalised Anxiety Disorder-7 (GAD-7), the Morningness-Eveningness Questionnaire (MEQ), and the Problematic Pornography Questionnaire (PPQ), the Acceptance and Action Questionnaire, and the Psychological and Interpersonal Relationship Scales (PAIRS).

[4] = Mean plasma ketamine, HNK and norketamine, all subjects of Examples 7-10; settings: 100 mg racemic ketamine sublingual, analyte = label; for concentration at 10 min / concentration at 20 min / concentration at 30 min / concentration at 40 min / concentration at 50 min / concentration at 60 min / concentration at 70 min / concentration at 80 min / concentration at 90 min: human, plasma, other: sublingual
Protocol: as §1
FIGS. 11-13 illustrate ketamine, HNK, and norketamine levels, respectively, for all subjects of EXAMPLES 7-10, while FIG. 14 illustrates the mean plasma levels of ketamine, HNK, and norketamine for all subjects of EXAMPLES 7-10. Results indicated a mean plasma concentration of ketamine of 104.87 ng/ml at 10 minutes, 230.11 ng/ml at 20 minutes, 267.08 ng/ml at 30 minutes, 271.62 ng/ml at 40 minutes, 288.48 ng/ml at 50 minutes, 272.42 ng/ml at 60 minutes, 263.40 ng/ml at 70 minutes, 227.50 ng/ml at 80 minutes, and 176.91 ng/ml at 90 minutes. Mean HNK was 0 at 10 minutes, 12.22 ng/ml at 20 minutes, 56.73 ng/ml at 30 minutes, 79.10 ng/ml at 40 minutes, 126.20 ng/ml at 50 minutes, 198.87 ng/ml at 60 minutes, 221.08 ng/ml at 70 minutes, 209.14 ng/ml at 80 minutes, and 217.32 ng/ml at 90 minutes. Mean norketamine was 1.92 at 10 minutes, 57.39 ng/ml at 20 minutes, 141.78 ng/ml at 30 minutes, 286.02 ng/ml at 40 minutes, 505.15 ng/ml at 50 minutes, 646.73 ng/ml at 60 minutes, 750.57 ng/ml at 70 minutes, 723.79 ng/ml at 80 minutes, and 653.94 ng/ml at 90 minutes.

[5] = subject BE1 (no data at 30 minutes)

Row | SMILES | peak plasma concentration [1, 5] | time of peak plasma concentration [1, 5] [min] | peak plasma concentration ([1]; subject BE2) | time of peak plasma concentration ([1]; subject BE2) [min] | peak plasma concentration ([1]; subject BE3) | time of peak plasma concentration ([1]; subject BE3) [min] | peak plasma concentration ([2]; subject G1) | time of peak plasma concentration ([2]; subject G1) [min] | peak plasma concentration ([2]; subject G2) | time of peak plasma concentration ([2]; subject G2) [min] | peak plasma concentration ([2]; subject G3) | time of peak plasma concentration ([2]; subject G3) [min] | peak plasma concentration ([2]; subject G4) | time of peak plasma concentration ([2]; subject G4) [min] | peak plasma concentration ([2]; subject G5) | time of peak plasma concentration ([2]; subject G5) | peak plasma concentration ([3]; subject CSB1) | time of peak plasma concentration ([3]; subject CSB1) [min] | peak plasma concentration ([3]; subject CSB2) | time of peak plasma concentration ([3]; subject CSB2) [min] | further results
1 | NC1(c2ccccc2Cl)CCCCC1=O (racemic) [Norketamine, (R,S)-norketamine] | about 81 ng/ml | 90 | about 685 ng/ml | 40 | about 975 ng/mL | 60 | about 592 ng/ml | 80 | about 1,450 ng/ml | 70 | about 574 ng/ml | 80 | about 495 ng/ml | 90 | about 1,079 ng/ml | about 90 minutes | about 1,069 ng/ml | 80 | about 785 ng/ml | 70 | peak plasma concentration ([3]; subject CSB3): about 923 ng/mL; time of peak plasma concentration ([3]; subject CSB3): 70 min; concentration at 10 min ([4]; 10 minutes post-administration): 1.92 ng/mL; concentration at 20 min ([4]; 20 minutes post-administration): 57.4 ng/mL; concentration at 30 min ([4]; 30 minutes post-administration): 142 ng/mL; concentration at 40 min ([4]; 40 minutes post-administration): 286 ng/mL; concentration at 50 min ([4]; 50 minutes post-administration): 505 ng/mL; concentration at 60 min ([4]; 60 minutes post-administration): 647 ng/mL; concentration at 70 min ([4]; 70 minutes post-administration): 751 ng/mL; concentration at 80 min ([4]; 80 minutes post-administration): 724 ng/mL; concentration at 90 min ([4]; 90 minutes post-administration): 654 ng/mL
2 | N[C@@]1(c2ccccc2Cl)CCC[C@@H](O)C1=O [HNK, (2S,6S;2R,6R)-hydroxynorketamine] | about 53 ng/ml | 90 | about 108 ng/ml | 80 | about 244 ng/mL | 90 | about 300 ng/ml | 80 | about 319 ng/ml | 70 | about 175 ng/ml | 90 | about 134 ng/ml | 90 | about 615 ng/ml | about 60 minutes | about 136 ng/ml | 80 | about 135 ng/ml | 90 | peak plasma concentration ([3]; subject CSB3): about 314 ng/mL; time of peak plasma concentration ([3]; subject CSB3): 70 min; mean plasma concentration ([4]; 10 minutes post-administration): 0 ng/mL; mean plasma concentration ([4]; 20 minutes post-administration): 12.22 ng/mL; mean plasma concentration ([4]; 30 minutes post-administration): 56.73 ng/mL; mean plasma concentration ([4]; 40 minutes post-administration): 79.10 ng/mL; mean plasma concentration ([4]; 50 minutes post-administration): 126.20 ng/mL; mean plasma concentration ([4]; 60 minutes post-administration): 198.87 ng/mL; mean plasma concentration ([4]; 70 minutes post-administration): 221.08 ng/mL; mean plasma concentration ([4]; 80 minutes post-administration): 209.14 ng/mL; mean plasma concentration ([4]; 90 minutes post-administration): 217.32 ng/mL
3 | CNC1(c2ccccc2Cl)CCCCC1=O (racemic) [ketamine, 2-(2-chlorophenyl)-2-(methylamino)-cyclohexanone] | about 270 ng/ml | 20 | about 339 ng/ml | 20 | about 208 ng/mL | 60 | about 250 ng/ml | 30 | about 405 ng/ml | 70 | about 395 ng/ml | 80 | about 291 ng/ml | 80 | about 426 ng/ml | about 20 minutes | about 368 ng/ml | 70 | about 285 ng/ml | 30 | peak plasma concentration ([3]; subject CSB3): about 395 ng/mL; time of peak plasma concentration ([3]; subject CSB3): 50 min; concentration at 10 min ([4]; 10 minutes post-administration): 105 ng/mL; concentration at 20 min ([4]; 20 minutes post-administration): 230 ng/mL; concentration at 30 min ([4]; 30 minutes post-administration): 267 ng/mL; concentration at 40 min ([4]; 40 minutes post-administration): 272 ng/mL; concentration at 50 min ([4]; 50 minutes post-administration): 288 ng/mL; concentration at 60 min ([4]; 60 minutes post-administration): 272 ng/mL; concentration at 70 min ([4]; 70 minutes post-administration): 263 ng/mL; concentration at 80 min ([4]; 80 minutes post-administration): 228 ng/mL; concentration at 90 min ([4]; 90 minutes post-administration): 177 ng/mL
